Laboratory results: paper PMC7891601 (Clinical Pharmacology and Therapeutics, 2020)
Like-named read-outs stand apart in the source and are kept apart here. Each block holds one molecule with its values, some of them ahead of it.

Tests used:
[1] = assay type: in vivo, human; settings: for impact of metformin administration on CLr: control vs baseline; for AUC / CLr: adjusted geometric mean; for AUC: AUC0–24; for CLr: 0–24 h; for mean plasma concentration (Cav): mean ± SEM
[2] = tested on: MATE1/2‐K; assay: Nonlinear regression of CLr ratio vs pyrimethamine plasma concentration; assay type: in vivo, human; settings: regression against pyrimethamine Cav
[3] = tested on: MATE2‐K; settings: read-out: Ki for MATE2‐K‐mediated creatinine uptake; cited from earlier work
[4] = molecular target: T1, SLC29A1/equilibrative nucleoside transporter 1 (Homo sapiens, UniProt Q99808); assay: Uptake of m1A in HEK293 cells with and without inhibitors; assay type: cell-based; settings: m1A 100 μM, HEK293, 15 min, inhibitor 10 μM
T1 sequence (Q99808 2-456): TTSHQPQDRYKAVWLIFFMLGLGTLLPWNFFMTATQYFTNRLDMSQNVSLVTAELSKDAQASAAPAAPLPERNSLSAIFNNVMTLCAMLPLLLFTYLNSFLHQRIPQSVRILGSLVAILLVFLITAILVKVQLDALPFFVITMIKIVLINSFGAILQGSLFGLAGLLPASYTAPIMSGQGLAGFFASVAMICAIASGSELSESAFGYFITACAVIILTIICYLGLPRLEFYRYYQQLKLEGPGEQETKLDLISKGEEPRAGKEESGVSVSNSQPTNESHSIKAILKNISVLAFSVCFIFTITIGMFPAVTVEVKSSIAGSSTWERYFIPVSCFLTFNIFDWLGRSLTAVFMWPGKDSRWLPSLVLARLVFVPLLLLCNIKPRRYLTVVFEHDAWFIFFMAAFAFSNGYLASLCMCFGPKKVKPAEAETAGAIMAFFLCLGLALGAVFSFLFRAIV

[5] = in humans; cited from earlier work
[6] = tested on: OAT2; settings: read-out: half‐maximal inhibitory concentration, OAT2; cited from earlier work
[7] = molecular target: T2, MATE1 (Homo sapiens, UniProt Q96FL8); assay type: cell-based; settings: In vitro Ki of pyrimethamine, 2 min, HEK293
T2 sequence (Q96FL8 1-570): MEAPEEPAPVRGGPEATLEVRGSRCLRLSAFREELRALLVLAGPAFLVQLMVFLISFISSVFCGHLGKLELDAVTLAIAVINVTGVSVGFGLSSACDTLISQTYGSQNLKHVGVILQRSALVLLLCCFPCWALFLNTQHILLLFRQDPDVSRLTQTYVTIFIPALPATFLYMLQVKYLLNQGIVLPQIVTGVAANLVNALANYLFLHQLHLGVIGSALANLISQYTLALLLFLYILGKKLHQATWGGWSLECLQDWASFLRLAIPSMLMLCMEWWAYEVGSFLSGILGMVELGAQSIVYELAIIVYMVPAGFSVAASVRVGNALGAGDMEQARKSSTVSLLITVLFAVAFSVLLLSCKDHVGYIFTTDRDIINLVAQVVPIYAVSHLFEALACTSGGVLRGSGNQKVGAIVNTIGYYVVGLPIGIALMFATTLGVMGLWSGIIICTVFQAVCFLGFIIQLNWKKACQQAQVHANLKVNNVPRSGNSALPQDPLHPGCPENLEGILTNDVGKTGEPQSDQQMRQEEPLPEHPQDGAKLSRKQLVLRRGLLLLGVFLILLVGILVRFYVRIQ

[8] = molecular target: MATE2‐K (Homo sapiens, UniProt Q86VL8); assay type: cell-based; settings: In vitro Ki of pyrimethamine, HEK293
MATE2‐K (Homo sapiens, UniProt Q86VL8), sequence (Q86VL8 1-566 isoform Q86VL8-3): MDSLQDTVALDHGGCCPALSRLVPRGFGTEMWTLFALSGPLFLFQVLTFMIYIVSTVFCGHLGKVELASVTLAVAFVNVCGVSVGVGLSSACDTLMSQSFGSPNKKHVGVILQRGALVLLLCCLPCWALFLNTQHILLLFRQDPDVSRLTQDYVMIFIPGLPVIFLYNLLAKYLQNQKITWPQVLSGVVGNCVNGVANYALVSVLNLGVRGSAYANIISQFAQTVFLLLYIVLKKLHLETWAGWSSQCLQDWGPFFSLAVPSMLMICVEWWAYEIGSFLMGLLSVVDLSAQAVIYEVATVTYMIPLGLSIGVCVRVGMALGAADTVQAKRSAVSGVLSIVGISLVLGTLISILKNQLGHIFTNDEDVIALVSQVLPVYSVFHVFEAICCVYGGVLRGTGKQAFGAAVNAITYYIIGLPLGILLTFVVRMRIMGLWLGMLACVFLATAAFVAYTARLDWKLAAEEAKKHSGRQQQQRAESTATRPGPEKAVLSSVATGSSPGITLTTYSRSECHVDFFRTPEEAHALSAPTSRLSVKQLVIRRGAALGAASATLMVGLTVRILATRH

[9] = tested on: MATE1; settings: read-out: Ki for MATE1‐mediated creatinine uptake; cited from earlier work
[10] = molecular target: T3, OCT2 (Homo sapiens, UniProt O15244); assay type: cell-based; settings: In vitro Ki of pyrimethamine, HEK293
T3 sequence (O15244 1-555): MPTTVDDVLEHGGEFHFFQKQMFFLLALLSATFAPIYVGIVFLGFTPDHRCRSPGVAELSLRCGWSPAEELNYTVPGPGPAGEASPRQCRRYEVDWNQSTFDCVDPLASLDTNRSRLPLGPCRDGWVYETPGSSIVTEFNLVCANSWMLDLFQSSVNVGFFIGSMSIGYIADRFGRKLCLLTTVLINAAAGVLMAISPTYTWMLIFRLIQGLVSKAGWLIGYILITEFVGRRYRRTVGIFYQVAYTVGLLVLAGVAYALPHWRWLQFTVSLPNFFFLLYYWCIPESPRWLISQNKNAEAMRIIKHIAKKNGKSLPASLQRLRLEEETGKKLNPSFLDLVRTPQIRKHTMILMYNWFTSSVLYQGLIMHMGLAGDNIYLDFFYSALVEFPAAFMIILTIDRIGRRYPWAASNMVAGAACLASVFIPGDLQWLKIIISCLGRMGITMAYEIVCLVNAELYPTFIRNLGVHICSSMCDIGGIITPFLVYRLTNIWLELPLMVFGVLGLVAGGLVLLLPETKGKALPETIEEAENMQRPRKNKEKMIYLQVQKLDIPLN

[11] = molecular target: T4, OAT3 (Homo sapiens, UniProt Q8TCC7); assay: Inhibition of ES uptake in OAT3-expressing HEK293 cells; assay type: cell-based
T4 sequence (Q8TCC7 1-542): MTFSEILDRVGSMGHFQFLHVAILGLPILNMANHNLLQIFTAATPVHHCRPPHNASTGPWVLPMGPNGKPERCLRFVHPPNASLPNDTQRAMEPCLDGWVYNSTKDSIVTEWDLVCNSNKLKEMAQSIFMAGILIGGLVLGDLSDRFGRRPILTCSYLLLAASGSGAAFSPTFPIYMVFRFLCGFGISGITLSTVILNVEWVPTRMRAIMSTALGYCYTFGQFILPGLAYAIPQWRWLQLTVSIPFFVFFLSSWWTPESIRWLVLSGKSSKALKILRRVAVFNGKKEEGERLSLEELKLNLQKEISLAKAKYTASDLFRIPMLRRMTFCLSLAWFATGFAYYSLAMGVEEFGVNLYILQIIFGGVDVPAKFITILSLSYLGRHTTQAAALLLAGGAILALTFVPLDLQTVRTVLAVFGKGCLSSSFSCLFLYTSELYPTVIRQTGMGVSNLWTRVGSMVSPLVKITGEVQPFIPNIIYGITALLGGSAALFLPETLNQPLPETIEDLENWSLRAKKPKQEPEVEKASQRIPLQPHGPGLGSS

[12] = molecular target: T5, OAT1 (Homo sapiens, UniProt Q4U2R8); assay: Inhibition of PAH uptake in OAT1-expressing HEK293 cells; assay type: cell-based
T5 sequence (Q4U2R8 1-563): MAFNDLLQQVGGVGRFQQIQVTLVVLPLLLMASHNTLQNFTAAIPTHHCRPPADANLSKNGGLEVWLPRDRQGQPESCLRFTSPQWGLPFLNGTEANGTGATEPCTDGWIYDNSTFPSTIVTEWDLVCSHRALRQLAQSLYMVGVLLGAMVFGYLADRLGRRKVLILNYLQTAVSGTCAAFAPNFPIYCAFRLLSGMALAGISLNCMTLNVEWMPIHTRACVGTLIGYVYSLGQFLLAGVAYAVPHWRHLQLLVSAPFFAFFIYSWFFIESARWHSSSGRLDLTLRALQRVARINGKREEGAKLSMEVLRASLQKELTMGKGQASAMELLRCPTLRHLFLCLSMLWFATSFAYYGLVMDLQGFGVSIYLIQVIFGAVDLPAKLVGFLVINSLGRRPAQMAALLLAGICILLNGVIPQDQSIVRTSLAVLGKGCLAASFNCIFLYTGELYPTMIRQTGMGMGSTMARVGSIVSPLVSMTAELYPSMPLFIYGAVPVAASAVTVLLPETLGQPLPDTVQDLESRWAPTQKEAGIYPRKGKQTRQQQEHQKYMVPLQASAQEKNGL

[13] = pyrimethamine 75 mg + metformin
[14] = control phase (metformin 500 mg alone)
[15] = pyrimethamine 10 mg + metformin
[16] = pyrimethamine 25 mg + metformin

SMILES: CN1CC(=O)NC1=N [Creatinine, creatinine]
- impact of metformin administration on CLr [1]: < 7%
- f PYR (contribution of tubular secretion to urinary excretion) [2]: 26%

SMILES: CN(C)C(=N)N=C(N)N [Metformin, metformin]
- decrease in CLr by pyrimethamine ([1]; pyrimethamine 10 mg vs control): 12%
- decrease in CLr by pyrimethamine ([1]; pyrimethamine 25 mg vs control): 34%
- increase in AUC by pyrimethamine ([1]; pyrimethamine 25 mg vs control): 24%
- AUC [1, 13]: 122.9 µM·h
- decrease in CLr by pyrimethamine ([1]; pyrimethamine 75 mg vs control): 55%
- increase in AUC by pyrimethamine ([1]; pyrimethamine 75 mg vs control): 69%

SMILES: Cc1ncc(CO)c(C(=O)O)c1O [PDA, pyridoxic acid]
- CLr [1, 14]: 545.1 mL/min
- AUC [1, 14]: 0.2912 µM·h
- CLr [1, 15]: 584.6 mL/min
- AUC [1, 15]: 0.2142 µM·h
- CLr [1, 16]: 603.1 mL/min
- AUC [1, 16]: 0.1772 µM·h
- CLr [1, 13]: 423.7 mL/min
- AUC [1, 13]: 0.1647 µM·h
- decrease in CLr by pyrimethamine ([1]; pyrimethamine 75 mg vs control): 22%

Continued, in another order:

- contribution of the tubular secretion ([1]; assumed from CLr vs creatinine clearance at 75 mg): 41%
- CLr relative to creatinine clearance ([1]; control conditions, vs corresponding creatinine clearance): 1.3 fold
- impact of metformin administration on CLr [1]: < 7%
SMILES: Cn1cnc2c(ncn2[C@@H]2O[C@H](CO)[C@@H](O)[C@H]2O)c1=N [m^1A, N ^1‐methyladenosine]

- effect of inhibitor on uptake of m1A (ENT1) [4]: minimal
- Ki ([7]; MATE1, substrate 1‐NMN 10 μM): 0.125 ± 0.026 µM
- Ki ([7]; MATE1, substrate metformin 10 μM): 0.154 ± 0.029 µM
- Ki ([8]; substrate 1‐NMN 10 μM, 2 min): 0.0821 ± 0.018 µM
- Ki ([8]; substrate m1A 100 μM, 30 min): 0.068 ± 0.015 µM
- Ki ([8]; substrate metformin 10 μM, 2 min): 0.0941 ± 0.016 µM
- mean plasma concentration (Cav) ([1]; 10 mg single oral dose): 287 ± 24 nM
- mean plasma concentration (Cav) ([1]; 25 mg single oral dose): 781 ± 31 nM
- mean plasma concentration (Cav) ([1]; 75 mg single oral dose): 2470 ± 180 nM
- Ki ([10]; OCT2, substrate 1‐NMN 10 μM, 2 min): 41.2 ± 9.1 µM
- Ki ([10]; OCT2, substrate m1A 100 μM, 30 min): 0.466 ± 0.043 µM
- Ki ([10]; OCT2, substrate metformin 10 μM, 2 min): 37.9 ± 5.6 µM
- IC50 [11]: 9.69 ± 2.27 µM
- IC50 [12]: 241 ± 55 µM
SMILES: CCc1nc(N)nc(N)c1-c1ccc(Cl)cc1 [pyrimethamine]
- Ki [3]: 0.22 µM
- elimination half‐life [5]: ca. 100 hours
- IC50 [6]: > 100 µM
- Ki [9]: 0.17 µM
